Source: patent US9067920B2, “Compounds useful for inhibiting Chk1” (Eli Lilly and Company, priority 2010, dated 2015)
pEC50: −log10 of the molar value. Counter-ions that a name gives are not always drawn.

Test system: HeLa cells
Experiment: Doxorubicin-induced G2M checkpoint abrogation HeLa cell-based Acumen assay (pHH3)
Settings: 125 nM doxorubicin, 7 h compound
Method: An inhibitor of Chk1 will disable the G2M DNA damage checkpoint in p53-minus tumor cells treated with the topoisomerase II inhibitor, doxorubicin. A measurement of G2M checkpoint abrogation is the phosphorylation of histone H3 on serine 10 that occurs after cells traverse the G2M checkpoint and enter mitosis. The following high content imaging assay can be used to measure the phosphorylation histone H3 in cells. HeLa cells are cultured in MEM Media supplemented with 10% (v/v) FBS and plated at 2000 cells per well in poly D-lysine coated clear bottom black plates, 100 μL volume per well. Plates are then incubated in a cell culture incubator for 18-24 h (37° C., 5% CO2 and 95% relative humidity), Following the initial incubation, 20 μL of MEM Media plus 10% FBS containing […] doxorubicin are added to the appropriate wells of the plates resulting in a final concentration of 125 nM. The plates are returned to the incubator for 24 h, sufficient to arrest the cells at the G2M checkpoint. The next day the cells are treated 1.0 with compounds. Compounds are solubilized at […] in 100% DMSO and then diluted to a 10× stock starting at 50 μM in MEM plus 4% (v/v) DMSO. Subsequently, serial dilutions of the compounds (1:2) are prepared over a 50 μM to 0.39 μM range. Thirteen μL of compound stock is added to the appropriate wells in the plate to produce a final DMSO concentration of 0.4% and a final compound concentration range between 5 and 0.039 μM. […] Plates are scanned with ACUMEN EXPLORER™ Laser-scanning fluorescence microplate cytometers using 488 nm excitation (TTP LABTECH LTC) to measure pHH3 and DNA content including 2N, and 4N, The pHH3 positive cells are identified by mean intensity at 519 nm from Alexa 488. […] The final readout for each population is determined by normalizing to the % of total cells producing a final assay output of % pHH3, % 2N, and % 4N. 100% activity is then determined by treating cells with the maximum concentration of an inhibitor control compound at 100 nM to determine the final % activity of each compound. […]

| SMILES | pEC50 (Homo sapiens, HeLa, 7 h) | pEC50 (acetic acid salt) |
| --- | --- | --- |
| COc1nc(C)ccc1-c1cc(Nc2cncc(O[C@@H]3CCCNC3)n2)[nH]n1 [Example 1, (R)-[5-(2-Methoxy-6-methyl-pyridin-3-yl)-2H-pyrazol-3-yl]-[6-(piperidin-3-yloxy)-pyrazin-2-yl]-amine] | 7.54 |  |
| COc1nc(C)ccc1-c1cc(Nc2cncc(O[C@@H]3CCCNC3)n2)[nH]n1 [Example 3, (R)-[5-(2-Methoxy-6-methyl-pyridin-3-yl)-2H-pyrazol-3-yl]-[6-(piperidin-3-yloxy)-pyrazin-2-yl]-amine acetic acid salt] |  | 7.72 |
